Measured values published in patent US9060943B2, “Compositions comprising trans-tert-butyl cyclohexanol as skin irritation-reducing agent” (SYMRISE AG, priority 2009, dated 2015).

Key:
recombinant human TRPV1 = biological target: T1, recombinant human TRPV1 (Homo sapiens, UniProt Q8NER1); assay: Calcium assay (Fluo-4) for TRPV1 antagonism in HEK293 cells in the presence of capsaicin; assay type: cell-based; settings: for TRPV1 antagonism (result in words), pre-incubation mode: isomer applied 10 min before addition of capsaicin; for TRPV1 antagonism (result in words): parallel application with capsaicin as agonist
T1 construct: expressed in transfected cells
Procedure: Three samples of cis- and/or trans-4-tert-butyl cyclohexanol were assessed: 1) 99% trans-isomer, 2) an isomeric mixture enriched in the cis-isomer (59% cis, 41% trans) and 3) 99% cis-isomer.
Calciumassay based on fluorescent dye Fluo-4-AM
Negative Control: KH-buffer (solvent)
Positive Control: lonomycin (generell calcium induction)
Positive Control Capsaicin (natural agonist of TRPV1)
One day prior to performing the assay, HEK293 cells stably overexpressing recombinant human TRPV1 were plated onto black-walled assay plates, at a density of 45,000 cells per well. Using the FLEX Station system the change of the cellular calcium concentration (calcium influx) induced by TRPV1 activation was monitored using the calcium sensitive fluorescent dye fluo-4 (494 nm/516 nm (exitation/emission)). The pharmacological TRPV1 antagonist Ruthenium Red (1 μM) was used as positive control [J. Biol. Chem. 2004, 279 (34): 35741-8]. The dye-loaded stable cells in plates were placed into the fluorescence microtiter plate reader to monitor fluorescence (excitation 488 nm, emission 520 nm) change after the addition of 50 μl assay buffer (118 mM NaCl; 4.7 mM KCl; 1.2 mM MgSO4; 1.2 mM KH2PO4; 4.2 mM NaHCO3; 1.3 mM CaCl2; 10 mM HEPES (N-(2-hydroxyethyl)-piperazine-N′-2-ethanesulfonic acid) (pH: 7.4)) supplemented with an antagonist. Calcium mobilization was quantified as the change of peak fluorescence (ΔF) over the baseline level (F). The analysis was done with the software of the microtiter plate reader (FLEX Station). Potential TRPV1 antagonists were tested at an effective range of 0.5-50 μM. The test compounds were either applied in parallel to 30 nM capsaicin or 10 min prior to the agonist. TRPV1 antagonists were tested for their antagonistic activity in the presence of 30 nM capsaicin, which is the EC80 effective capsaicin concentration leading to 80% of the maximum capsaicin dependent TRPV1 activation.
Antagonistic efficacy of the isomers of 4-tert-butyl cyclohexanol on transient receptor potential ion channel 1 in cell based fluorescent analysis.
The three samples were tested for TRPV1 antagonism at parallel application with capsaicin as agonist.
TRPV1 antagonist in vitro at incubation prior to capsaicin: cis-4-tert-butyl cyclohexanol and trans-4-tert-butyl cyclohexanol were applied to HEK293 cells 10 min before capsaicin treatment.
We therefore additionally tested the pure cis- and trans-isomers of 4-tert-butyl cyclohexanol respectively in a pre-incubation mode with application of the respective isomer 10 min before addition of capsaicin.

[1] = system: volunteers who were sensitive to capsaicin; assay: Clinical study: stinging and burning at the nasolabial fold, O/W-emulsion with capsaicin with or without active; assay type: in vivo, human; settings: O/W-emulsion with 31.6 ppm capsaicin and 1 wt. % active on nasolabial fold; evaluated 3 minutes later; 20 volunteers
Procedure: A study was performed with 20 volunteers who were sensitive to capsaicin. […] On day 1 sample c2 was assessed versus control. On day 2 sample c1 was assessed versus control. The stinging and burning effects were evaluted 3 minutes later on the same scale as in Example 1.2.

[2] = system: volunteers who were sensitive to capsaicin; assay: In vivo testing: capsaicin-induced stinging on the cheek, O/W-emulsion versus placebo; design: species or system human; settings: O/W-emulsion with 1 wt. % applied 60 s after 31.6 ppm capsaicin on cheek; evaluated 5 minutes later; 9 volunteers
Procedure: A study was performed with 9 volunteers who were sensitive to capsaicin. […] After 60 seconds all participants sensed a pronounced stinging effect. Then, an O/W-emulsion with 1 wt. % racemic trans-4-tert-butyl cyclohexanol (purity >99 wt. %) was applied on one cheek and the placebo O/W-emulsion on the other cheek (blinded samples).

T1 sequence (Q8NER1 whole entry): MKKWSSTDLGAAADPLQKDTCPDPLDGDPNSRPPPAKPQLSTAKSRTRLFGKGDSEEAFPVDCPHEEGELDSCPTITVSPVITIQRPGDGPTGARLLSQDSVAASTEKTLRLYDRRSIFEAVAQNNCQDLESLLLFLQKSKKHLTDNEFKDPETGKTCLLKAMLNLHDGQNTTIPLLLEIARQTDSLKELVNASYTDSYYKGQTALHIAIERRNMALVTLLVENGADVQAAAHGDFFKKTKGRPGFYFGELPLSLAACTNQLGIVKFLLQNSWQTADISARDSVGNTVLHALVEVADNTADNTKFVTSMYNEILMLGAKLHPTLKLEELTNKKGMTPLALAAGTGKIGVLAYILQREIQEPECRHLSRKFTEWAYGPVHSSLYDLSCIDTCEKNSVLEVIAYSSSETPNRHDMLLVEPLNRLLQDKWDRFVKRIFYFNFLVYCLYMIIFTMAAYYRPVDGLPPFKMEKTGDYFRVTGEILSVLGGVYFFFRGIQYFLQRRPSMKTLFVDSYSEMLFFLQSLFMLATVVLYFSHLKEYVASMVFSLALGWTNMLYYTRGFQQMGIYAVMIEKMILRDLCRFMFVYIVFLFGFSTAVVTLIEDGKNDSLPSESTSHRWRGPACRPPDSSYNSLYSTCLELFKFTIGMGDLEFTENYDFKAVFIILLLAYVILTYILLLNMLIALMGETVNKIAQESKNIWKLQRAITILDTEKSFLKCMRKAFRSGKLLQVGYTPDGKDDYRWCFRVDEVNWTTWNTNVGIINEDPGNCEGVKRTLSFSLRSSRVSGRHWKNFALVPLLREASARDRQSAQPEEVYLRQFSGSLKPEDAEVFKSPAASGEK

EC80 effective capsaicin concentration (80% of maximum capsaicin dependent TRPV1 activation) (recombinant human TRPV1; agonist, HEK293 cells overexpressing human TRPV1) [µM]	IC50 (recombinant human TRPV1; parallel application with 30 nM capsaicin as agonist, HEK293 cells overexpressing human TRPV1) [µM]	SMILES	TRPV1 antagonism (result in words), pre-incubation mode (recombinant human TRPV1)	TRPV1 antagonism (result in words) (recombinant human TRPV1)	average rating of inhibition/reduction of stinging and burning on scale 0 to 4 [1]	average rating of reduction of stinging effect on scale 0 (no effect) to 4 (completely suppressed) [2]
0.03		COc1cc(CNC(=O)CCCC/C=C/C(C)C)ccc1O [capsaicin, reference compound]				
		CC(C)(C)[C@H]1CC[C@@H](O)CC1 [cis-4-tert-butyl cyclohexanol, reference compound]	not active	inactive		
	34.1	CC(C)(C)[C@H]1CC[C@H](O)CC1 [trans-4-tert-butyl cyclohexanol]	strong activity	significantly more active	2.95	3.10
